Like-named read-outs stand apart in the source and are kept apart here.
Target: T1, human V1b receptors (Homo sapiens, UniProt P47901)
T1 construct: expressed in transfected cells
T1 sequence (P47901 1-424): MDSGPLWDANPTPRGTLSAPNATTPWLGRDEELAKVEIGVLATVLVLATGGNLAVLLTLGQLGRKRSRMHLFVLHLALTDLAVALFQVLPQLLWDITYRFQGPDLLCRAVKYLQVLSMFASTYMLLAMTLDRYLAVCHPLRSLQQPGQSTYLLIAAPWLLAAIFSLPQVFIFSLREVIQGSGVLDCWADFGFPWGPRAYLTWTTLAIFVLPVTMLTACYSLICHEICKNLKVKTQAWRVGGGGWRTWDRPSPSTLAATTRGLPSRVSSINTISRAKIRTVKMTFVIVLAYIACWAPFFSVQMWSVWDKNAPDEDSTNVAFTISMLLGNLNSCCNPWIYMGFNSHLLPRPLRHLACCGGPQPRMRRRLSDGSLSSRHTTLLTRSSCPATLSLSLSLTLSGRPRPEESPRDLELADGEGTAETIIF
Test: Vasopressin V1b receptor binding assay
Method: Vasopressin V1b Receptor Binding Assay:
These DMSO solutions were diluted 1:10 with assay buffer. The substance concentration was further diluted 1:10 in the assay mixture.
The nonspecific binding was determined with 10^−6 M AVP. Determinations in triplicate were carried out.
The affinities for the human vasopressin V1b receptor were measured, and affinity constants determined, in the above assay for the inventive examples.
The affinities of the compounds (I) of the invention for the human vasopressin V1b receptor were measured in accordance with the above assays, and the affinity constants (Ki) were determined. Table 1 below details the V1b receptor affinity of selected compounds (+++ means <10 nM and ++ means 10-100 nM).

[1] = Table 1, human vasopressin V1b receptor affinity, read-out: V1b Ki
[2] = membranes from CHO-K1 cells, 3H-AVP displacement, read-out: measured Ki values, affinities for the vasopressin V1b receptor

SMILES | Ki [1] | Ki [2]
CCOc1ccccc1C1(NC(=O)N2CCN(c3ccc(C#N)cn3)CC2)C(=O)N(S(=O)(=O)c2ccc(C#N)cc2)c2ccc(C#N)cc21 (centres unmarked) [Example 47, 4-(5-Cyanopyridin-2-yl)piperazine-1-[1-(4-cyanobenzenesulfonyl)-5-cyano-2-oxo-3-(2-ethoxyphenyl)-2,3-dihydro-1H-indol-3-yl]carboxamide] | 10 to 100 nM | < 100 nM
CCOc1ccccc1C1(NC(=O)N2CCN(c3ccc(C#N)cn3)CC2)C(=O)N(S(=O)(=O)c2ccc(Cl)cc2)c2ccc(C#N)cc21 (centres unmarked) [Example 46, 4-(5-Cyanopyridin-2-yl)piperazine-1-[1-(4-chlorobenzenesulfonyl)-5-cyano-2-oxo-3-(2-ethoxyphenyl)-2,3-dihydro-1H-indol-3-yl]carboxamide] | 10 to 100 nM | < 100 nM
CCOc1ccccc1C1(NC(=O)N2CCN(c3ccncc3)CC2)C(=O)N(S(=O)(=O)c2ccccc2)c2ccc(C#N)cc21 (centres unmarked) [Example 11, 4-(Pyridin-4-yl)piperazine-1-[1-benzenesulfonyl-5-cyano-2-oxo-3-(2-ethoxyphenyl)-2,3-dihydro-1H-indol-3-yl]carboxamide] | 10 to 100 nM | < 100 nM
CCOc1ccccc1C1(NC(=O)N2CCN(c3ccncc3)CC2)C(=O)N(S(=O)(=O)c2ccc(F)cc2F)c2ccc(C#N)cc21 (centres unmarked) [Example 13, 4-(Pyridin-4-yl)piperazine-1-[1-(2,4-difluorobenzenesulfonyl)-5-cyano-2-oxo-3-(2-ethoxyphenyl)-2,3-dihydro-1H-indol-3-yl]carboxamide] | 10 to 100 nM | < 100 nM
CCOc1ccccc1C1(NC(=O)N2CCN(c3ccc(C#N)cn3)CC2)C(=O)N(S(=O)(=O)c2ccc(OC)cc2OC)c2ccc(C#N)cc21 (centres unmarked) [Example 33, 4-(5-Cyanopyridin-2-yl)piperazine-1-[1-(2,4-dimethoxybenzenesulfonyl)-5-cyano-2-oxo-3-(2-ethoxyphenyl)-2,3-dihydro-1H-indol-3-yl]carboxamide] | < 10 nM | < 100 nM
CCOc1ccccc1C1(OC(=O)N2CCN(c3ccccn3)CC2)C(=O)N(S(=O)(=O)c2ccc(OC)cc2OC)c2ccc(C#N)cc21 (centres unmarked) [Example 25, 1-(2,4-Dimethoxybenzenesulfonyl)-5-cyano-2-oxo-3-(2-ethoxyphenyl)-2,3-dihydro-1H-indol-3-yl 4-(pyridin-2-yl)piperazine-1-carboxylate] | 10 to 100 nM | < 100 nM
CCOc1ccccc1C1(OC(=O)N2CCN(c3ccncc3)CC2)C(=O)N(S(=O)(=O)c2ccc(C)cc2OC)c2ccc(C#N)cc21 (centres unmarked) [Example 20] | < 10 nM | < 100 nM
CCOc1ccccc1C1(OC(=O)N2CCN(c3nccs3)CC2)C(=O)N(S(=O)(=O)c2ccccc2OC)c2ccc(C#N)cc21 (centres unmarked) [Example 4, 5-Cyano-1-(2-methoxybenzenesulfonyl)-3-(2-ethoxyphenyl)-2-oxo-2,3-dihydro-1H-indol-3-yl 4-(thiazol-2-yl)piperazine-1-carboxylate] | < 10 nM | < 100 nM
CCOc1ccccc1C1(NC(=O)N2CCN(c3ccncc3)CC2)C(=O)N(S(=O)(=O)c2ccc([N+](=O)[O-])cc2)c2ccc(C#N)cc21 (centres unmarked) [Example 17, 4-(Pyridin-4-yl)piperazine-1-[1-(4-nitrobenzenesulfonyl)-5-cyano-2-oxo-3-(2-ethoxyphenyl)-2,3-dihydro-1H-indol-3-yl]carboxamide] | < 10 nM | < 100 nM
CCOc1ccccc1C1(OC(=O)N2CCN(c3ccncc3)CC2)C(=O)N(S(=O)(=O)c2ccccc2F)c2ccc(C#N)cc21 (centres unmarked) [Example 8, 5-Cyano-1-(2-fluorobenzenesulfonyl)-3-(2-ethoxyphenyl)-2-oxo-2,3-dihydro-1H-indol-3-yl 4-(pyridin-4-yl)piperazine-1-carboxylate] | 10 to 100 nM | < 100 nM
CCOc1ccccc1C1(NC(=O)N2CCN(c3ccncc3)CC2)C(=O)N(S(=O)(=O)c2ccc(OC)cc2OC)c2ccc(C#N)cc21 (centres unmarked) [Example 16, 4-(Pyridin-4-yl)piperazine-1-[1-(2,4-dimethoxybenzenesulfonyl)-5-cyano-2-oxo-3-(2-ethoxyphenyl)-2,3-dihydro-1H-indol-3-yl]carboxamide] | < 10 nM | < 100 nM
CCOc1ccccc1C1(NC(=O)N2CCN(c3ccncc3)CC2)C(=O)N(S(=O)(=O)c2ccccc2F)c2ccc(C#N)cc21 (centres unmarked) [Example 12, 4-(Pyridin-4-yl)piperazine-1-[1-(2-fluorobenzenesulfonyl)-5-cyano-2-oxo-3-(2-ethoxyphenyl)-2,3-dihydro-1H-indol-3-yl]carboxamide] | < 10 nM | < 100 nM
CCOc1ccccc1C1(OC(=O)N2CCN(c3ccncc3)CC2)C(=O)N(S(=O)(=O)c2ccccc2OC)c2ccc(C#N)cc21 (centres unmarked) [Example 2, 5-Cyano-1-(2-methoxybenzenesulfonyl)-3-(2-ethoxyphenyl)-2-oxo-2,3-dihydro-1H-indol-3-yl 4-(pyridin-4-yl)piperazine-1-carboxylate] | 10 to 100 nM | < 100 nM
CCOc1ccccc1C1(NC(=O)N2CCN(c3ccc(C#N)cn3)CC2)C(=O)N(S(=O)(=O)c2ccc(C#N)cc2)c2ccc(C#N)cc21 (centres unmarked) [Example 50, 4-(5-Cyanopyridin-2-yl)piperazine-1-[1-(4-cyanobenzenesulfonyl)-5-cyano-2-oxo-3-(2-ethoxyphenyl)-2,3-dihydro-1H-indol-3-yl]carboxamide] | 10 to 100 nM | 
CCOc1ccccc1C1(OC(=O)N2CCN(c3nccs3)CC2)C(=O)N(S(=O)(=O)c2ccc(C#N)cc2)c2ccc(C#N)cc21 (centres unmarked) [Example 42, 1-(4-Cyanobenzenesulfonyl)-5-cyano-2-oxo-3-(2-ethoxyphenyl)-2,3-dihydro-1H-indol-3-yl 4-(thiazol-2-yl)piperazine-1-carboxylate] | 10 to 100 nM | < 100 nM
CCOc1ccccc1C1(OC(=O)N2CCN(c3ccncc3)CC2)C(=O)N(S(=O)(=O)c2ccc(F)cc2F)c2ccc(C#N)cc21 (centres unmarked) [Example 7, 5-Cyano-1-(2,4-difluorobenzenesulfonyl)-3-(2-ethoxyphenyl)-2-oxo-2,3-dihydro-1H-indol-3-yl 4-(pyridin-4-yl)piperazine-1-carboxylate] | 10 to 100 nM | < 100 nM
CCOc1ccccc1C1(NC(=O)N2CCN(c3cnccn3)CC2)C(=O)N(S(=O)(=O)c2ccc(OC)cc2OC)c2ccc(C#N)cc21 (centres unmarked) [Example 35, 4-(Pyrazin-2-yl)piperazine-1-[1-(2,4-dimethoxybenzenesulfonyl)-5-cyano-2-oxo-3-(2-ethoxyphenyl)-2,3-dihydro-1H-indol-3-yl]carboxamide] | 10 to 100 nM | < 100 nM
CCOc1ccccc1C1(NC(=O)N2CCN(c3ccc(C#N)cn3)CC2)C(=O)N(S(=O)(=O)c2ccccc2F)c2ccc(C#N)cc21 (centres unmarked) [Example 49, 4-(5-Cyanopyridin-2-yl)piperazin-1-[1-(2-fluorobenzenesulfonyl)-5-cyano-2-oxo-3-(2-ethoxyphenyl)-2,3-dihydro-1H-indol-3-yl]carboxamide] |  | < 100 nM
CCOc1ccccc1C1(NC(=O)N2CCN(c3ccncc3)CC2)C(=O)N(S(=O)(=O)c2ccccc2OC)c2ccc(C#N)cc21 (centres unmarked) [Example 10, 4-(Pyridin-4-yl)piperazine-1-[1-(2-methoxybenzenesulfonyl)-5-cyano-2-oxo-3-(2-ethoxyphenyl)-2,3-dihydro-1H-indol-3-yl]carboxamide] | < 10 nM | < 100 nM
CCOc1ccccc1C1(NC(=O)N2CCN(c3ccncc3)CC2)C(=O)N(S(=O)(=O)c2ccc(C#N)cc2)c2ccc(C#N)cc21 (centres unmarked) [Example 14, 4-(Pyridin-4-yl)piperazine-1-[1-(4-cyanobenzenesulfonyl)-5-cyano-2-oxo-3-(2-ethoxyphenyl)-2,3-dihydro-1H-indol-3-yl]carboxamide] | < 10 nM | < 100 nM
CCOc1ccccc1C1(OC(=O)N2CCN(c3ccncc3)CC2)C(=O)N(S(=O)(=O)c2ccccc2)c2ccc(C#N)cc21 (centres unmarked) [Example 9, 5-Cyano-1-benzenesulfonyl-3-(2-ethoxyphenyl)-2-oxo-2,3-dihydro-1H-indol-3-yl 4-(pyridin-4-yl)-piperazine-1-carboxylate] | 10 to 100 nM | < 100 nM
CCOc1ccccc1C1(OC(=O)N2CCN(c3cc(C#N)ccn3)CC2)C(=O)N(S(=O)(=O)c2ccc(OC)cc2OC)c2ccc(C#N)cc21 (centres unmarked) [Example 26, 1-(2,4-Dimethoxybenzenesulfonyl)-5-cyano-2-oxo-3-(2-ethoxyphenyl)-2,3-dihydro-1H-indol-3-yl 4-(4-cyanopyridin-2-yl)piperazine-1-carboxylate] | < 10 nM | < 100 nM
CCOc1ccccc1C1(NC(=O)N2CCN(c3ccc(C#N)cn3)CC2)C(=O)N(S(=O)(=O)c2ccccc2)c2ccc(C#N)cc21 (centres unmarked) [Example 48, 4-(5-Cyanopyridin-2-yl)piperazine-1-[1-benzenesulfonyl-5-cyano-2-oxo-3-(2-ethoxyphenyl)-2,3-dihydro-1H-indol-3-yl]carboxamide] | 10 to 100 nM | < 100 nM

— patent US8129389B2, “Substituted oxindole derivatives, medicaments containing the latter and use thereof” (Abbott GmbH & Co. KG, priority 2005, dated 2012)
